According to patent publication US20120258938A1, “Enzymatic Production or Chemical Synthesis and Uses for 5,7-Dienes and UVB Conversion Products Thereof” (priority 2008, published 2012):

Tests used:
[1] = tested on: HaCaT keratinocytes; format: cell-based, human
Procedure: The cells were seeded in 96-well plate in F10 medium. Following 48 to 96 h incubation cells were fixed with 10% trichloroacetic acid, washed and then incubated with 0.04% sulforhodamine B (in 1% acetic acid) for 30 min. Following second wash with 1% acetic acid, dye incorporated into the cells was solubilized in 10 mM Tris by shaking for 30 min and the absorbance was measured at 570 nm.
Cells are treated with the test compound, washed, fixed and stained with the Sulphorhodamine B dye (SRB). The incorporated dye is then liberated from the cells in a tris-base solution. An increase or decrease in the number of cells (total biomass) results in a concomitant change in the amount of dye incorporated by the cells in the culture. Cells were seeded in growth medium at 10,000 per well in 96-well plates. After 12 h of culture the medium was changed to 5% charcoal-treated serum and cells cultured for a further 47 h with serial dilutions of 1α,20-dihydroxycholecalciferol (diluted as for as for thymidine incorporation). […] was then added to a final concentration of 20% from a 50% stock and cells incubated for 1 h. Cells were stained with SRB 0.4% (Sigma), washed with 1% acetic acid and dried. Trsi-HCl was added and the absorbance measured at 565 nm. The absorbance of blank medium only, was also measured also at 690 nm.

[2] = tested on: HaCaT keratinocytes; assay: [3H]-thymidine DNA synthesis in HaCaT keratinocytes; format: cell-based, human
Procedure: HaCaT keratinocytes were plated in 96-well plates at the density of 10,000 cells/well in DMEM (Cellgro, Herndon Va.) containing 5% charcoal treated fetal bovine serum (Hyclone, Logan, Utah), 1% antibiotic solution (PSA, Sigma, St. Louis, […].). Next day, media were changed and vehicle (ethanol) or secosteroids added. Cells were incubated with compounds for 48 hours. [^3H]-thymidine (Amersham Biosciences, Picataway, N.Y.) was added to the final concentration of 1 μCi/mL medium for last 12 hours of incubation. Media were then discarded, cells detached with trypsin and harvested on a glass fiber filter (Packard, Meriden, Calif.). Radioactivity was measured with a beta counter (Direct Beta-Counter Matrix 9600; Packard).
(§1) To measure DNA synthesis, keratinocytes, melanoma or prostate cancer cells were plated in 96-well plates. After overnight incubation tested compounds were added to the medium to achieve final concentrations 10^−7-10^−10 [M]. 100 μl of medium per well containing vitamin D3 compound was added to the cells. After 36 hours of incubation [3H]-thymidine (specific activity 88.0 Ci/mmol; Amersham Biosciences, Picataway, N.Y., USA) was added at 1 μCi/mL medium. After 12 hours, media were discarded, cells detached with trypsin and harvested on a glass fiber filter (Packard, Meriden, Calif., USA). 3H-radioactivity was measured with a beta counter (Direct Beta-Counter Matrix 9600; Packard).
HaCaT keratinocytes were plated out in 24-well plates, 50,000 cells/well. […] After 4 h media were discarded, cells washed with cold phosphate-buffered saline and incubated in 10% trichloroacetic acid for 30 min. Cells were washed again with phosphate-buffered saline, 100 μl 1.0 M NaOH was added to each well and plates incubated for 30 min at 30° C. The supernatant was collected and the ^3H-radioactivity measured by scintillation counting using a Direct Beta-Counter Matrix 9600 (Packard). The [^3H]-thymidine incorporation into DNA was measured separately for each well and the results entered into the calculation as the mean of 6 wells for each condition in a series of six experiments (n=36). Data were analyzed with GraphPad Prizm Version 4.0 (GraphPad Software Inc., San Diego, Calif., USA) using t tests. Differences were considered significant when p<0.05.

[3] = tested on: CYP24; assay: Real-time RT PCR CYP24 mRNA in HaCaT keratinocytes; format: cell-based, human
Procedure: RNA was extracted as above. Reverse transcription was performed with Transcriptor First Strand cDNA Synthesis Kit (Roche, Nutley, N.J.). The primers (right: 5′-GCA GCT CGA CTG GAG TGA C-3′ (SEQ ID NO: 1) and left: 5′-CATCATGGCCATCAAAACAAT-3′(SEQ ID NO: 2)) and probe (cat. no. 04689135001) were designed with Universal Probe Library (Roche, Nutley, N.J.). Real-time PCR was performed using TaqMan PCR Master Mix at 50° C. for 2 min, 95° C. for 10 min and then 50 cycles (95° C. for 15 sec, 60° C. for 1 min). The data was collected on a Roche Light Cycler 480. The amounts of CYP24 were normalized using cyclophilin D as a housekeeping gene with comparative CT method.
The RNA from HaCaT keratinocytes treated with 1α,20-dihydroxycholecalciferol was isolated and RT PCR run as described in Example 1.

[4] = biological target: bovine CYP11A1 (Bos taurus, UniProt P00189); assay: Metabolism by CYP11A1 (P450scc) in phospholipid vesicles; format: in vitro ADME; settings: first 2 min of incubation
Chain of bovine CYP11A1 (P00189 40-520): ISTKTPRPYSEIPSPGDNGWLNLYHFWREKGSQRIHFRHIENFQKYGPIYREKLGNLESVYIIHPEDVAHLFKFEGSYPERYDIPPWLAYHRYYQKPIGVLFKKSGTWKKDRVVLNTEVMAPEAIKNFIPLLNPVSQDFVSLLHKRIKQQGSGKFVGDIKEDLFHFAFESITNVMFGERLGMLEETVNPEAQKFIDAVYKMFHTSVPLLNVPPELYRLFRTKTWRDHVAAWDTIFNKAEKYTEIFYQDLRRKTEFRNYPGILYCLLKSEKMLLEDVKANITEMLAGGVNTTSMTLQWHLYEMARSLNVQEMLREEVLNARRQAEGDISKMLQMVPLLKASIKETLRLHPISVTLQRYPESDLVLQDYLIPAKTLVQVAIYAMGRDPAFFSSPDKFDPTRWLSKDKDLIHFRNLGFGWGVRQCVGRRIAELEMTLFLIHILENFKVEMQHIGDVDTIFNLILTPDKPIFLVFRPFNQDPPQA
Procedure: (§2) Adrenodoxin was added last to initiate the reaction.
(§3) Products and remaining substrate were extracted with dichloromethane, and measured by reverse phase HPLC as described before (12, 13b).

[5] = tested on: neonatal human epidermal keratinocytes (HEKn); assay: [3H]-thymidine proliferation assay in HEKn; format: cell-based; settings: 24 h, 0.1 nM
Procedure: Neonatal human epidermal keratinocytes (HEKn) were isolated form neonatal foreskin of African-American donors and grown in HKM (Lonza) medium supplemented with HKGF (Lonza) as described previously (8a,c). For the cell proliferation assay the cells from a third passage were seeded into 24-well plates (TPP, Switzerland) and grown until reaching ˜80% confluence. Secosteroids were dissolved in ethanol and then diluted in keratinocyte medium containing 0.1% BSA (Sigma). Cells were incubated for 24 h then 1 μCi/ml [^3H]-thymidine (Moravek Biochemicals Inc., Brea, Calif.) was added and cells were incubated for further 4 h. Excess of unbound thymidine was removed by washing cells with PBS. Cells were precipitated with 10% trichloroacetic acid (TCA) (Sigma) and then the precipitate dissolved with 1N NaOH. The solution was collected in vials and thymidine incorporation was determined in liquid scintillation counter (Beckman LS 6000, Santa Clara, Calif.).

[6] = biological target: human CYP27B1 (Homo sapiens, UniProt O15528); assay: Metabolism by CYP27B1 in phospholipid vesicles; format: in vitro ADME; settings: up to 10 min
Chain of human CYP27B1 (O15528 whole entry): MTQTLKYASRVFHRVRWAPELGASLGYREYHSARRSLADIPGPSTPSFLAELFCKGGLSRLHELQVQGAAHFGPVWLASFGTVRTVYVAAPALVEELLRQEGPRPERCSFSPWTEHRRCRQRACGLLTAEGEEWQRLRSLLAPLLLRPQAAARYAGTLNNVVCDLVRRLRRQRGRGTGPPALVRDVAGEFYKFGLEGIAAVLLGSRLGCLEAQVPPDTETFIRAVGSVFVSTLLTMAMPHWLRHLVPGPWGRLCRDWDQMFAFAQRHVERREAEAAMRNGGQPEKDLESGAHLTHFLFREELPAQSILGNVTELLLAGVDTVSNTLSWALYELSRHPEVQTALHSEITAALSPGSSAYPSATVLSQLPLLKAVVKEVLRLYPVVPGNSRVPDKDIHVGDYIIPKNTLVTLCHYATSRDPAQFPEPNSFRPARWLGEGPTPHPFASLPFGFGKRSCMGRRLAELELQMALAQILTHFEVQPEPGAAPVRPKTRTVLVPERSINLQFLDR
Procedure: as §2, §3

[7] = tested on: human melanoma cells; assay: Melanoma colony formation (crystal violet, 7 days); format: cell-based; settings: colonies over 0.2 mm and 0.5 mm
Text: Inhibitory effects of 20(OH)D2 (FIGS. 47A-47B) in comparison to 1,25(OH)2D3 (FIGS. 47C-47D) on the ability of human melanoma cells to form colonies was examined.

[8] = tested on: involucrin; assay: Real-time RT PCR involucrin mRNA, normal human epidermal keratinocytes; format: cell-based; settings: 10^−7 M, time dependant
Procedure: RNA was extracted using an Absolutely RNA RT-PCR Miniprep Kit (Stratagene, La Jolla, Calif.). Real time PCR and reverse transcription products were purchased from Applied Biosystems, Foster City, Calif. Reverse transcription was performed using Taqman® Reverse Transcription Reagents. The following PCR products were used: cytokeratin 14: Hs00265033_m1, involucrin: Hs00846307_s1, CYP27A1: Hs00168003_ml, CYP27B1: Hs00168017_ml, 18SrRNA: Hs99999901_s1. The reaction was performed with Taqman® Universal PCR Master Mix; data were collected on an ABI Prism 7700 and analyzed on Sequence Detector 1.9.1. Specific gene amounts were related to 18SrRNA by comparative CT method.

[9] = tested on: SKMEL-188 human melanoma cells; assay: Proliferation (DNA synthesis) of SKMEL-188; format: cell-based; settings: SKMEL-188, 72 h
Procedure: as §1
(§4) HaCaT keratinocytes were an incubated for 48 h (FIG. 48A) or 72 h (FIG. 48B) in the presence of graded concentrations of 20(OH)D2 and/or 1,25(OH)2D3. […] Data are shown as mean±SD (n 3); *, p<0.05; **, p<0.01.

[10] = tested on: AbC1 hamster melanoma cells; assay: Proliferation (DNA synthesis) of AbC1; format: cell-based; settings: AbC1, 72 h
Procedure: as §1, §4

[11] = tested on: immortalized normal epidermal melanocytes (PIG1 line); assay: Proliferation of PIG1 melanocytes; format: cell-based; settings: PIG1, 72 h
[12] = tested on: neonatal epidermal melanocytes; assay: Proliferation of neonatal epidermal melanocytes; format: cell-based; settings: 48 hours
[13] = tested on: involucrin; assay: Involucrin protein fluorescence, normal human epidermal keratinocytes; format: cell-based; settings: 10^−7 M
Procedure: Cells were seeded in 6-well Lab-Tek II chamber slides (Nalge Nunc, Inc., Naperville, Ill.). Cells were pre-incubated in Epilife medium with HKGS overnight and then stimulated with 20-hydroxycholecalciferol in Epilife medium with HKGS for 24 hours and then fixed with 4% paraformaldehyde in PBS for 10 minutes. The cells were permeabilized with 0.2% Triton-X 100 in PBS for 5 minutes and blocked with 1% bovine serum albumine (BSA; in PBS) for 30 minutes. The cells were incubated consecutively with mouse anti-human involucrin antibody (Novocastra, Newcastle upon Tyne, UK) for 3 hours, anti-mouse-fluorescein isothiocyanate (FITC) conjugate (Novocastra, Newcastle upon Tyne, UK) for 1 hour in buffer containing 1% BSA in PBS. The slides were extensively washed with PBS between stainings and mounted with Vectashield mounting medium with propidium iodide (Vector Laboratories, Burlingame, Calif.). Slides not incubated with primary antibody were used as background controls. Slides were viewed with NIKON Eclipse TE300 microscope (Melville, N.Y.).
Data are shown as mean±SD (n=10-20). **, p<0.01. ***, p<0.001.

[14] = substrate: C=C1CC[C@H](O)C/C1=C/C=C1\CCC[C@]2(C)[C@@H]([C@H](C)CCCC(C)C)CC[C@@H]12; assay: cells, lysate or membranes named; settings: other: cyclodextrin; 37.0 °C

C=C1C(=CC=C2CCCC3(C)C2CCC3C(C)(O)CCCC(C)C)CC(O)CC1O (stereo not drawn) [1α,20-dihydroxycholecalciferol, (5Z,7E)-9,10-secocholesta-5,7,10(19)-triene-1α,3β,20-triol]
number of viable cells (sulforhodamine B) [1]: caused a decrease in number of viable cells | decrease in DNA synthesis ([2]; 0.1 nM): 30% | decrease in DNA synthesis ([2]; 10 nM): 50% | keratinocyte proliferation compared with 1α,25-dihydroxycholecalciferol ([2]; HaCaT, 48 h): inhibit keratinocyte proliferation more potently than the control compound | CYP24 mRNA level ([3]; 0.1 μM, 6 h): Modest stimulation | CYP24 mRNA level ([3]; 0.1 μM, 24 h): the effect was lost by 24 h | CYP24 mRNA level ([3]; 1 μM, 6 h and 24 h): markedly increased the Cyp 24 mRNA level

C=C1CCC(O)CC1=CC=C1CCCC2(C)C1CCC2C(C)(O)CCCC(C)C (stereo not drawn) [20R(OH)D3, (5Z,7E)-9,10-secocholesta-5,7,10(19)-triene-3β,20R-diol]
substrate consumed [4]: 58% | thymidine incorporation into DNA [5]: slightly stimulated thymidine incorporation into DNA | metabolism by CYP27B1 [6]: metabolized to a single product at comparable initial rates

(5Z,7E,22E)-9,10-secoergosta-5,7,9(10),22-tetraene-3β,20-diol [20(OH)D2]
melanoma cell colony formation compared with 1,25(OH)2D3 [7]: Inhibits Melanoma Cell Colony Formation Better than 1.25 OH 2D3 | involucrin gene expression [8]: induced time dependant involucrin gene expression | proliferation [9]: Dose dependent inhibition of the proliferation | proliferation [10]: Dose dependent inhibition of the proliferation | proliferation [11]: Dose dependent inhibition of the proliferation | proliferation [12]: Dose dependent inhibition of the proliferation | involucrin protein expression [13]: increased expression of involucrin protein

B1: CYP27A1 (Homo sapiens) (protein)
chain: ALPSDKATGAPGAGPGVRRRQRSLEEIPRLGQLRFFFQLFVQGYALQLHQLQVLYKAKYGPMWMSYLGPQMHVNLASAPLLEQVMRQEGKYPVRNDMELWKEHRDQHDLTYGPFTTEGHHWYQLRQALNQRLLKPAEAALYTDAFNEVIDDFMTRLDQLRAESASGNQVSDMAQLFYYFALEAICYILFEKRIGCLQRSIPEDTVTFVRSIGLMFQNSLYATFLPKWTRPVLPFWKRYLDGWNAIFSFGKKLIDEKLEDMEAQLQAAGPDGIQVSGYLHFLLASGQLSPREAMGSLPELLMAGVDTTSNTLTWALYHLSKDPEIQEALHEEVVGVVPAGQVPQHKDFAHMPLLKAVLKETLRLYPVVPTNSRIIEKEIEVDGFLFPKNTQFVFCHYVVSRDPTAFSEPESFQPHRWLRNSQPATPRIQHPFGSVPFGYGVRACLGRRIAELEMQLLLARLIQKYKVVLAPETGELKSVARIVLVPNKKVGLQFLQRQC
Km [14]: 10.7 ± 3.1 µM
